The results in this text go back to US9758520B2, “Substituted fused heterocycles as GPR119 modulators for the treatment of diabetes, obesity, dyslipidemia and related disorders” (SANOFI, priority 2014, dated 2017).

One may read the EC50 as the concentration needed to bring the measured effect to its halfway point.

For this assay, the target named is T1, human GPR119 (Homo sapiens, UniProt Q8TDV5).
T1 construct: expressed in transfected cells
T1 sequence (Q8TDV5 1-335): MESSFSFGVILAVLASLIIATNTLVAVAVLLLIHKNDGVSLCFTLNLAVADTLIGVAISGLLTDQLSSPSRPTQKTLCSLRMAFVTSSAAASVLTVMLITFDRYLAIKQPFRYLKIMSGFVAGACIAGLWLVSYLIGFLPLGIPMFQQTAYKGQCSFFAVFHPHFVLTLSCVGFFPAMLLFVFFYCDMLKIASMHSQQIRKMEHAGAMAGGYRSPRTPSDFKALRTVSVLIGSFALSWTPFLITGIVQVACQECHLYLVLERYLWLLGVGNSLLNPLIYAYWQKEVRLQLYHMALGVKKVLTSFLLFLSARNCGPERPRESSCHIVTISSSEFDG
As to the kind of experiment: Functional cellular assay measuring GPR119-mediated cAMP release (HTRF) in HEK-293 cells stably expressing recombinant GPR119. The class given is cell-based. The following applies: cAMP response, cell line expressing human GPR119 (HEK-293), 30 minutes at room temperature. The method, then:
Functional Cellular Assays Measuring GPR119-Mediated cAMP Release
Compounds of the invention, which are agonists of GPR119, were characterized by functional assays measuring the cAMP response of HEK-293 cell lines stably expressing recombinant GPR119 from man, mouse or rat, or by using a hamster cell line HIT-T15 expressing GPR119 endogenously. The cAMP content was determined using a kit based on homogenous time-resolved fluorescence (HTRF) from Cisbio Corp. (cat. no. 62AM4PEC). For preparation, cells were split into T175 culture flasks and grown to near confluency in medium (DMEM/10% FCS for HEK-293 cells, and F-12K medium/10% horse serum/2.5% FCS for HIT-T15 cells, respectively). Medium was then removed and cells washed with PBS lacking calcium and magnesium ions, followed by proteinase treatment with accutase (Sigma-Aldrich, cat. no. A6964). Detached cells were washed and resuspended in assay buffer (1×HBSS; 20 mM HEPES, 0.1% BSA, 2 mM IBMX) and cellular density determined. They were then diluted to 400000 cells/mL and 25 μL-aliquots dispensed to the wells of 96-well plates. For measurement, 25 μL of test compound in assay buffer was added and incubated for 30 minutes at room temperature. After addition of HTRF reagents diluted in lysis buffer, the plates were incubated for 1 hour, followed by measuring the fluorescence ratio at 665 vs. 620 nm. Potency of the agonists was quantified by determining the concentrations that caused 50% of the maximal response/activation (EC50). See Table 3 for exemplary data obtained using the cell line expressing human GPR119.
(In general: TR-FRET usually uses a lanthanide donor and a delayed reading to cut background.)

Molecules are shown by their SMILES.

For the compound `NC(=O)Cn1nc2ccc(N3CC[C@@H](Oc4ccc(OCC5CC5)nc4)C3=O)cc2n1` [Example 2-05, 2-[5-[(3R)-3-[[6-(cyclopropylmethoxy)-3-pyridyl]oxy]-2-oxo-pyrrolidin-1-yl]benzotriazol-2-yl]acetamide], the concentration giving a half-maximal response (EC50) worked out at 196 nM.
